Experiment [1] is described as follows: Inhibition of sheep dynamin 1 GTPase activity after 30 mins by malachite-green method. Also noted: species or system Ovis aries.
For a further experiment, the species on record is Homo sapiens. Briefly: Inhibition of clathrin at 100 uM.
A further experiment deals with T1, Dynamin-1 (Homo sapiens) (UniProt Q05193).
T1 sequence (whole entry): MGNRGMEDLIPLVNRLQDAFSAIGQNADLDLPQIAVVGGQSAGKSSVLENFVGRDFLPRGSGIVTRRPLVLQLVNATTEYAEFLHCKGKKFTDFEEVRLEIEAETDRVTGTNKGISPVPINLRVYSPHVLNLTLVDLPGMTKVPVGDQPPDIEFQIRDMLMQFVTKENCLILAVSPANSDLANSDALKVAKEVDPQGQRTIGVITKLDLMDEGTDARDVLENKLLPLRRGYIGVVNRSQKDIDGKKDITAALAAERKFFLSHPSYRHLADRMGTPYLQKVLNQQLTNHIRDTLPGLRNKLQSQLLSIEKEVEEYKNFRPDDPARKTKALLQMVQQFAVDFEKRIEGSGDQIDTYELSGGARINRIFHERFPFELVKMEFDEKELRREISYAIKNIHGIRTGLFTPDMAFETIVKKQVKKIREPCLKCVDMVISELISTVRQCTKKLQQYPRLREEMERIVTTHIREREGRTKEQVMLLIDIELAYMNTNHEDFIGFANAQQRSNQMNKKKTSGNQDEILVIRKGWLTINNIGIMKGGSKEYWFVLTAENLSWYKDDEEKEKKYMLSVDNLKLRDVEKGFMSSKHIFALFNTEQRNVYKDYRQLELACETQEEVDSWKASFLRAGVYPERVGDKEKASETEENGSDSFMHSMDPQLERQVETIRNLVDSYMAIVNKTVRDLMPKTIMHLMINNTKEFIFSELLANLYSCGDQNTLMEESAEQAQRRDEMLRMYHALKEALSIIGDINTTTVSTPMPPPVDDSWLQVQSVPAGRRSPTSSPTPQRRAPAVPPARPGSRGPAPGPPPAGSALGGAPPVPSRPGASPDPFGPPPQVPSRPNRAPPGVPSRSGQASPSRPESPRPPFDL
The experiment in a line: Inhibition of dynamin1-mediated endocytosis in human U2OS cells assessed as inhibition of Texas red-Tf uptake incubated up to 300 uM for 30 mins prior to Texas red-Tf addition measured after 8 mins by receptor-mediated endocytosis assay. The format is cell-based.

The species named for the next experiment is Ovis aries. Briefly: Inhibition of sheep dynamin 1 GTPase activity up to 300 uM after 30 mins by malachite-green method.

Each structure is given as a SMILES string. Active and inactive are the calls of the source. Bounds are passed on as bounds.

As usually defined, the IC50 is the point on the concentration scale where inhibition reaches its midpoint. Turning to `CN(C)CCCOc1ccc(/C=C2\SC(=S)N(Cc3ccccc3)C2=O)cc1`, the IC50 in experiment [1] was 22 µM. In addition, the inhibition entry in the experiment filed under Homo sapiens and at Dynamin-1 (Homo sapiens) was “inactive” throughout.

In experiment [1], `O=C1NC(=S)S/C1=C\c1coc2c(Cl)cc(Cl)cc2c1=O` came in with an IC50 of 24 µM. In addition, in the experiment filed under Homo sapiens, the inhibition entry was “inactive”.

In turn, `O=C(O)CN1C(=O)/C(=C/c2ccc(Br)cc2)SC1=S` gave an IC50 in experiment [1] of over 100 µM. For the same compound, the inhibition result in the experiment filed under Homo sapiens is “inactive”.

Turning to `O=C1NC(=S)S/C1=C\c1ccc(Br)cc1`, the inhibition result in the experiment filed under Homo sapiens and in the experiment filed under Ovis aries was “inactive” in each case.

In the case of `O=C(O)CCN1C(=O)/C(=C/c2ccc3nonc3c2)SC1=S`, the inhibition result in the experiment filed under Homo sapiens and in the experiment listed under Ovis aries was “inactive” each time.

Consider `O=C(O)CN1C(=O)/C(=C/c2ccc3nsnc3c2)SC1=S`, for which the inhibition result in the experiment listed under Homo sapiens and in the experiment filed under Ovis aries was “inactive” each time.

For `CCN1C(=O)/C(=C/c2ccc(-c3ccccc3)cc2)SC1=S`, the inhibition result in the experiment listed under Homo sapiens and in the experiment listed under Ovis aries was “inactive” throughout.

For the compound `C=CCN1C(=O)/C(=C/c2cnc3ccccc3n2)SC1=S`, the inhibition result in the experiment listed under Homo sapiens and in the experiment listed under Ovis aries was “inactive” in each case.

Take `CCN1C(=O)/C(=C/c2ccc3nsnc3c2)SC1=S`: the inhibition result in the experiment listed under Homo sapiens and in the experiment listed under Ovis aries was “inactive” in each case.

In turn, `CCN1C(=O)/C(=C/c2ccc(OCCCN(C)C)cc2)SC1=S` gave an IC50 in experiment [1] of 6.4 µM. Moreover, the inhibition result in the experiment listed under Homo sapiens is “inactive”.

For `CCN1C(=O)/C(=C/c2cnc3ccccc3n2)SC1=S`, the inhibition entry in the experiment filed under Homo sapiens and in the experiment filed under Ovis aries was “inactive” in each case.

Take `CCN1C(=O)/C(=C/c2coc3c(Cl)cc(Cl)cc3c2=O)SC1=S`: in experiment [1], inhibition was half-maximal at 5.1 µM (IC50). For the same compound, the inhibition result in the experiment filed under Homo sapiens is “inactive”.

`O=C(O)CN1C(=O)/C(=C/C2=Cc3ccccc3OC2)SC1=S`: the inhibition entry in the experiment filed under Homo sapiens and in the experiment listed under Ovis aries was “inactive” in each case.

Consider `O=C1NC(=S)S/C1=C\c1cnc2ccccc2n1`, for which half-maximal inhibition in experiment [1] (IC50) was put at 43 µM. The inhibition entry in the experiment filed under Homo sapiens and on Dynamin-1 (Homo sapiens) was “inactive” each time.

On to `C=CCN1C(=O)/C(=C/C2=Cc3ccccc3OC2)SC1=S`, for which the inhibition entry in the experiment listed under Homo sapiens and in the experiment filed under Ovis aries was “inactive” throughout.

With `O=C(O)CN1C(=O)/C(=C/c2coc3c(Cl)cc(Cl)cc3c2=O)SC1=S`, the IC50 in experiment [1] is 3.4 µM. Moreover, the inhibition result in the experiment listed under Homo sapiens was “inactive”.

As for `O=C(O)CCN1C(=O)/C(=C/c2cnc3ccccc3n2)SC1=S`, the inhibition entry in the experiment filed under Homo sapiens and in the experiment listed under Ovis aries was “inactive” throughout.

In experiment [1], `O=C(O)CCN1C(=O)/C(=C/c2csc3ccc(Cl)cc23)SC1=S` yielded an IC50 of 48 µM. For the same compound, the inhibition result in the experiment filed under Homo sapiens and on Dynamin-1 (Homo sapiens) was “inactive” each time.

In the case of `O=C(O)CN1C(=O)/C(=C/c2ccc(-c3ccccc3)cc2)SC1=S`, in experiment [1], the IC50 is 73 µM. Also, the inhibition result in the experiment listed under Homo sapiens was “inactive”.

Regarding `O=C1/C(=C/c2ccc(-c3ccccc3)cc2)SC(=S)N1Cc1ccccc1`, the inhibition result in the experiment filed under Homo sapiens and in the experiment filed under Ovis aries was “inactive” in each case.

Compound `O=C1/C(=C/c2cc(Cl)cc(Cl)c2)SC(=S)N1Cc1ccccc1` showed an IC50 in experiment [1] of 50 µM. The inhibition result in the experiment filed under Homo sapiens and at Dynamin-1 (Homo sapiens) was “inactive” each time.

For the compound `O=C1NC(=S)S/C1=C\c1ccc2nonc2c1`, in experiment [1], the IC50 stood at 7.4 µM. Besides, the inhibition entry in the experiment listed under Homo sapiens was “inactive”.

Consider `O=C1/C(=C/c2csc3ccc(Cl)cc23)SC(=S)N1Cc1ccccc1`, for which the inhibition result in the experiment filed under Homo sapiens and in the experiment listed under Ovis aries was “inactive” each time.

As to `CCN1C(=O)/C(=C/c2csc3ccc(Cl)cc23)SC1=S`, the inhibition entry in the experiment listed under Homo sapiens and in the experiment listed under Ovis aries was “inactive” in each case.

`O=C1NC(=S)S/C1=C\c1ccc(-c2ccccc2)cc1`: the inhibition entry in the experiment listed under Homo sapiens and in the experiment listed under Ovis aries was “inactive” each time.

As to `O=C1/C(=C/c2cnc3ccccc3n2)SC(=S)N1Cc1ccccc1`, the inhibition result in the experiment listed under Homo sapiens and in the experiment listed under Ovis aries was “inactive” throughout.

In the case of `CCN1C(=O)/C(=C/C2=Cc3ccccc3OC2)SC1=S`, the inhibition entry in the experiment filed under Homo sapiens and in the experiment filed under Ovis aries was “inactive” throughout.

On to `O=C(O)CN1C(=O)/C(=C/c2cnc3ccccc3n2)SC1=S`, for which the IC50 in experiment [1] is over 100 µM. Moreover, the inhibition result in the experiment listed under Homo sapiens was “inactive”.

Regarding `O=C(O)CN1C(=O)/C(=C/c2cc(Cl)cc(Cl)c2)SC1=S`, the IC50 in experiment [1] was 5.5 µM. Besides, the inhibition entry in the experiment listed under Homo sapiens and on Dynamin-1 (Homo sapiens) was “inactive” throughout.

Take `O=C1/C(=C/c2ccc(Br)cc2)SC(=S)N1Cc1ccccc1`: the IC50 in experiment [1] is 134 µM. Besides, in the experiment listed under Homo sapiens, the inhibition entry was “inactive”.

Turning to `O=C1NC(=S)S/C1=C\c1ccc2nsnc2c1`, the inhibition entry in the experiment filed under Homo sapiens and in the experiment filed under Ovis aries was “inactive” throughout.

Consider `C=CCN1C(=O)/C(=C/c2ccc(-c3ccccc3)cc2)SC1=S`, for which the inhibition entry in the experiment filed under Homo sapiens and in the experiment filed under Ovis aries was “inactive” in each case.

For the compound `O=C1/C(=C/c2ccc3nsnc3c2)SC(=S)N1Cc1ccccc1`, the inhibition result in the experiment filed under Homo sapiens and in the experiment listed under Ovis aries was “inactive” each time.

For the compound `CCN1C(=O)/C(=C/c2ccc(Br)cc2)SC1=S`, the inhibition entry in the experiment listed under Homo sapiens and in the experiment listed under Ovis aries was “inactive” throughout.

In experiment [1], `O=C1NC(=S)S/C1=C\C1=Cc2ccccc2OC1` returned an IC50 of 90 µM. For the same compound, the inhibition result in the experiment listed under Homo sapiens is “inactive”.

Turning to `C=CCN1C(=O)/C(=C/c2ccc(Br)cc2)SC1=S`, the inhibition entry in the experiment filed under Homo sapiens and in the experiment filed under Ovis aries was “inactive” in each case.

On to `C=CCN1C(=O)/C(=C/c2ccc3nonc3c2)SC1=S`, for which the inhibition entry in the experiment filed under Homo sapiens and in the experiment filed under Ovis aries was “inactive” throughout.

`O=C(O)CN1C(=O)/C(=C/c2csc3ccc(Cl)cc23)SC1=S` registered an IC50 in experiment [1] of 12.3 µM. Moreover, the inhibition entry in the experiment listed under Homo sapiens was “inactive”.

In experiment [1], `O=C(O)CCN1C(=O)/C(=C/c2coc3c(Cl)cc(Cl)cc3c2=O)SC1=S` registered an IC50 of 10 µM. In the experiment listed under Homo sapiens, the inhibition entry was “inactive”.

In the case of `O=C(O)CCN1C(=O)/C(=C/c2ccc(-c3ccccc3)cc2)SC1=S`, in experiment [1], it took 42 µM to reach half-maximal inhibition (IC50). The inhibition entry in the experiment filed under Homo sapiens was “inactive”.

Compound `O=C1NC(=S)S/C1=C\c1cc(Cl)cc(Cl)c1` yielded an IC50 in experiment [1] of 7.5 µM. The inhibition entry in the experiment listed under Homo sapiens is “inactive”.

For `C=CCN1C(=O)/C(=C/c2ccc3nsnc3c2)SC1=S`, the inhibition entry in the experiment filed under Homo sapiens and in the experiment filed under Ovis aries was “inactive” throughout.

Turning to `O=C1/C(=C/c2coc3c(Cl)cc(Cl)cc3c2=O)SC(=S)N1Cc1ccccc1`, the IC50 in experiment [1] came to 7.4 µM. Besides, in the experiment listed under Homo sapiens, the inhibition entry is “inactive”.

On to `C=CCN1C(=O)/C(=C/c2coc3c(Cl)cc(Cl)cc3c2=O)SC1=S`, for which the IC50 in experiment [1] is over 100 µM. For the same compound, in the experiment filed under Homo sapiens, the inhibition entry is “inactive”.

For `CCN1C(=O)/C(=C/c2ccc3nonc3c2)SC1=S`, the inhibition result in the experiment filed under Homo sapiens and in the experiment filed under Ovis aries was “inactive” in each case.

As for `C=CCN1C(=O)/C(=C/c2csc3ccc(Cl)cc23)SC1=S`, the inhibition result in the experiment listed under Homo sapiens and in the experiment listed under Ovis aries was “inactive” in each case.

As for `CN(C)CCCOc1ccc(/C=C2\SC(=S)N(CCC(=O)O)C2=O)cc1`, the inhibition entry in the experiment filed under Homo sapiens was “inactive”.

The compound `O=C(O)CCN1C(=O)/C(=C/C2=Cc3ccccc3OC2)SC1=S` returned an IC50 in experiment [1] of 23.5 µM. The inhibition entry in the experiment listed under Homo sapiens was “inactive”.

Regarding `O=C1/C(=C/C2=Cc3ccccc3OC2)SC(=S)N1Cc1ccccc1`, the inhibition result in the experiment listed under Homo sapiens and in the experiment filed under Ovis aries was “inactive” each time.

In turn, `O=C(O)CCN1C(=O)/C(=C/c2ccc3nsnc3c2)SC1=S` yielded an IC50 in experiment [1] of over 100 µM. The inhibition result in the experiment filed under Homo sapiens is “inactive”.

For the compound `O=C1/C(=C/c2ccc3nonc3c2)SC(=S)N1Cc1ccccc1`, the IC50 in experiment [1] amounted to 53 µM. For the same compound, the inhibition result in the experiment filed under Homo sapiens was “inactive”.

On to `CN(C)CCCOc1ccc(/C=C2\SC(=S)NC2=O)cc1`, for which the inhibition entry in the experiment listed under Homo sapiens and in the experiment filed under Ovis aries was “inactive” in each case.

Turning to `O=C(O)CN1C(=O)/C(=C/c2ccc3nonc3c2)SC1=S`, the inhibition entry in the experiment filed under Homo sapiens and in the experiment filed under Ovis aries was “inactive” each time.

`O=C(O)CCN1C(=O)/C(=C/c2ccc(Br)cc2)SC1=S` registered an IC50 in experiment [1] of 9 µM. Moreover, the inhibition result in the experiment filed under Homo sapiens was “inactive”.

As for `CN(C)CCCOc1ccc(/C=C2\SC(=S)N(CC(=O)O)C2=O)cc1`, the inhibition entry in the experiment filed under Homo sapiens and in the experiment filed under Ovis aries was “inactive” in each case.

Turning to `C=CCN1C(=O)/C(=C/c2ccc(OCCCN(C)C)cc2)SC1=S`, the IC50 in experiment [1] turned out to be 3.6 µM. In addition, in the experiment listed under Homo sapiens, the inhibition result is “inactive”.

Consider `O=C1NC(=S)S/C1=C\c1csc2ccc(Cl)cc12`, for which it took 5.5 µM to reach half-maximal inhibition in experiment [1] (IC50). The inhibition result in the experiment listed under Homo sapiens is “inactive”.

The values are drawn from ChEMBL document CHEMBL2062444, “The Rhodadyns, a New Class of Small Molecule Inhibitors of Dynamin GTPase Activity” (ACS Med Chem Lett, 2012).
